Reference: US8404688B2, “Nitrone compounds, process of preparation thereof, and use thereof in medicament manufacture” (Jinan University, priority 2008, dated 2013)

What was measured:
[1] = system: permanent middle cerebral occlusion; settings: monkeys, Marshall et al. 2001; cited from earlier work
MCA occlusion = settings: male Wistar rats, 2 hour MCA occlusion, given 1 hour after recirculation; at 48 hours and 7 days; Kuroda et al. 1999; cited from earlier work
cortical neuronal cells = assay: Protection of cortical neuronal cells from H2O2-induced oxidative damage (MTT); assay type: cell-based; settings: cortical neurons, FIG. 4
Protocol: Cortical neurons (9×10^4 cells/well) were placed into 96-well cell culture plates, and were incubated at 37° C. for 24 h under 5% CO2. The medium was changed, and the cells were incubated for another 12 h. Drugs at different concentrations were added, and the cells were incubated at 37° C. for 30 min. Hydrogen peroxide were then added, and the cells were incubated for 24 h at 37° C. for 24 h under 5% CO2. A solution of 3-(4,5-dimethylthiazol-2-ly)-2,5-diphenyl-tetrazoliun bromide (MTT) was added, and the cells were incubated for another 4 h before DMSO was added. After the crystals were completely dissolved (30 min), the absorbance was read at 570 nm with a spectrophotometer (Bio-Rad Model 680, Japan). The results were expressed as the percentage of the control (saline group).

MCAo rat stroke model = assay: Protection of stroke in MCAo rats (infarct area, TTC staining); assay type: in vivo; settings: TBN 80 mg/kg i.p. 1 h after occlusion; 2 h ischemia, 24 h reperfusion; FIG. 6
Protocol: Female Sprague-Dawley rats (210-240 g) were anesthetized with 10% chloral hydrate (400 mg/kg) i.p. The right common carotid artery (CCA) was carefully exposed. The occipital branch of the external carotid artery (ECA) was coagulated and the internal carotid artery (ICA) was isolated. A poly-L-lysine-coated nylon suture (0.32 mm in diameter) was inserted into the ECA and advanced retrogradely until the bifurcation of the CCA from where it was advanced a distance of approximately 18-20 mm into the ICA to occlude the MCA. A ligature was tied around the ICA, the incisions were closed, and the animal was extubated.
TMP (50 mg/kg), TBN (80 mg/kg), PBN (65 mg/kg), Eda (62 mg/kg) and saline were administered i.p. 1 h after MAC occlusion, respectively. After 2 h of MCA occlusion, the suture was withdrawn to allow reperfusion. After 24 h of reperfusion, the animals were re-anesthetized with 10% chloral hydrate (400 mg/kg) i.p., and were then decapitated. The brain was quickly removed, rinsed with PBS, and stored in a refrigerator at −20° C. until it was frozen. The brain was sliced with a blade at every 2-mm from the frontal pole, and the slices were stained with 2,3,5-triphenyltetrazolium chloride (TTC, 0.5% in normal saline) for 30 min at 37° C. […] The area of infarction was quantified by the Osiris 4 software, and the results were expressed as the percentage of the total brain section area.

thrombus = assay: Thrombolytic activity in rats (inferior vena cava ligation, dried thrombus weight); assay type: in vivo; settings: TBN 3.25 mg/kg i.v.; rat; FIG. 7
Protocol: The abdomen was then closed. Drugs were administered 2 h after ligation i.v. via the dorsal tail vein. The abdomen was reopened after […] of ligation. The thrombus was removed and dried at 50° C. for 24 h. The dried thrombus was weighted.

Cortical neurons = assay: Protection of neuronal cells from NMDA excitotoxic damage; assay type: cell-based; settings: drug 1-1000 μM, NMDA 100 μM, 24 h, FIG. 5
Protocol: Cortical neurons (9×10^4 cells/well) were placed into 96-well cell culture plates, and were incubated at 37° C. for 24 h under 5% CO2. The medium was changed, and the cells were incubated for another 12 h. Drugs at different concentrations 1000 μM, 100 μM, 10 μM, 1 μM) were added, and the cells were incubated at 37° C. for 30 min. NMDA (15 μL) was then added (final concentration of NMDA is 100 μM), and the cells were incubated for 24 h at 37° C. for 24 h under 5% CO2.

thrombosis = settings: rat arterio- and phlebo-thrombosis models; Liu and Sylvester 1990; cited from earlier work
[2] = intravenous injection, rat; Sheu et al. 1997; cited from earlier work
cerebral ischemia = settings: rat 2-h MCA occlusion by intraluminal suture; Ley et al.; cited from earlier work

Question: Which results are given for CC(C)(C)[N+]([O-])=Cc1ccc(S(=O)(=O)[O-])cc1S(=O)(=O)[O-].[Na+].[Na+] [NXY-059, disodium 4-[(tert-butylimino)methyl]benzene-1,3-disulfonate N-oxide]?
Answer: reduction of overall amount of brain damage vs saline-treated control [1]: > 50%; infarct volume (MCA occlusion): significantly reduced infarct volume

Question: Which “effectiveness relative to Eda in protecting cortical neuronal cells from H2O2-induced damage” value (cortical neuronal cells; H2O2, MTT) does the source give for Cc1nc(C)c(/C=[N+](\[O-])C(C)(C)C)nc1C [TBN, 2-[[(1,1-Dimethylethyl)oxidoimino]methyl]-3,5,6-trimethylpyrazine] here?
Answer: The value was “approximately 10 fold”.

Question: What about the “protection of cortical neuronal cells from H2O2-induced damage, compared with TMP and PBN” value (cortical neuronal cells; drug 30 min before H2O2, 24 h, MTT) of the same compound?
Answer: Its value is “more effective than either TMP or PBN”.

Question: And the “protective effect in MCAo rat stroke model (area of infarction)” value (MCAo rat stroke model)?
Answer: Its value is “significant protective effects”.

Question: And the “thrombolytic activity (dried thrombus weight)” value (thrombus)?
Answer: Its value is “significant thrombolytic activity”.

Question: And the “protection of neuronal cells from NMDA toxicity” value (Cortical neurons)?
Answer: Its value is “significantly protected”.

Question: For Cc1nc(C)c(C)nc1C [TMP, tetramethylpyrazine], which thrombolytic activity (thrombosis) is on record?
Answer: The thrombolytic activity was “showed thrombolytic activity”.

Question: And the “prolongation of bleeding time” value [2]?
Answer: The value was 1.5 times.

Question: Which “neurological deficits compared with vehicle controls” value (cerebral ischemia) does the source give for stilbazulenyl nitrone [STAZN] here?
Answer: Its value is “improved neurological deficits”.
